Literature values in patent US20250339403A1, “Tryptamine Formulations and Uses Thereof” (Natural MedTech Pty Ltd, priority 2022, published 2025).
Like-named read-outs stand apart in the source and are kept apart here.

How the values were obtained:
[1] = in vivo
MAO = details: after administration
[2] = not given; remark: listed apart in the source
[3] = weight-to-weight basis

O=C(NCCN1CCOCC1)c1ccc(Cl)cc1 [Moclobemide, 4-chloro-N-(2-morpholin-4-ylethyl)benzamide]
half-life [1]: about 2 hours
time by which inhibition of MAO is completely absent (MAO): ≤ 24 h

COc1ccc2[nH]cc(CCN(C)C)c2c1 [Formulation 5-MeO-DMT, 5-methoxy-N,N-dimethyltryptamine]
amount required to induce hallucinations (inhalation): 6 to 20 mg
amount required to induce hallucinations (intravenous injection): 0.7 to 3.1 mg
amount required to induce hallucinations (oral administration): ~30 mg
amount required to induce hallucinations (sublingual or intranasal insufflation): ~10 mg

CN(C)CCc1c[nH]c2ccccc12 [DMT, N,N-dimethyltryptamine]
share of recovered compounds that was DMT-N-oxide (DMT-NO) ([2]; after oral administration): 3%
share of recovered compounds that were MAO-dependent IAA ([2]; after oral administration): 97%
unmetabolized DMT in blood samples and urine ([2]; after oral administration): no unmetabolized DMT
share of recovered metabolites that were MAO-dependent IAA ([2]; smoking DMT): 63%
psychotropic effects (after oral consumption): not experienced
psychotropic effects (after smoking an equivalent dose): noted
effectiveness (inhaled free-base DMT (0.07-0.28 mg/kg)): have not shown effectiveness
effectiveness (rectally administered (1.7 mg/kg of the bioxalate salt)): have not shown effectiveness

CN(C)CCc1c[nH]c2cccc(O)c12 [Psilocin, 3-[2-(dimethylamino)ethyl]-1H-indol-4-ol]
potency relative to psilocybin [3]: about 1.4 times
